Test results as given in patent EP3958980B1, “TARGETED NOVEL TRIAZOLOTHIADIAZINE DERIVATIVES FOR THE TREATMENT OF LUNG CANCER” (Anadolu Universitesi, priority 2020, dated 2021).
In brackets after ≈: the same amount, converted by molar mass. Several values for one entry are separate records, joined by “and”; a condition that tells them apart may be missing. Identical values can stand only once.

What was measured:
[1] = system: A549 human lung adenocarcinoma cells; assay: MTT assay, in vitro cytotoxic activity on A549; type: cell-based; settings: for IC50: Homo sapiens, A549, 24 hour incubation, read-out: IC50 values (µg/mL) A549 cell line
Experimental: The in vitro cytotoxic effects of the compounds were determined with the MTT assay. For this purpose, MTT test was performed using A549 and CCD-19Lu cell lines. After the cell lines used in the invention were centrifuged following taking them out from liquid nitrogen (-196 °C), the cells were cultured in a CO2 incubator comprising 5% CO2 at 37 °C in flasks containing 10% fetal bovine serum (FBS), where CCD-19Lu cells were cultured with Dulbecco's Modified Eagle's Medium (DMEM) and A549 cells were cultured with Roswell Park Memorial Institute (RPMI). The cells that reach the sufficient number for the assay, were seeded to 96 well plates such that 2×10^3 cells were placed in each well and at the same time, components at concentrations of 1-500 µg/mL were added to cells and they were incubated at 37 °C. At the end of the 24 hour incubation period, the MTT powder (5 mg/mL in 1 × phosphate buffered saline (PBS)) was added to each well (20 µL). After a 2-4 h period under the same conditions, the medium was removed from the plate and 100 µL of DMSO was added to each well to dissolve the dye and kept for 10 minutes. Then the plates were read at a wavelength of 540 nm using ELx808-IU Bio-Tek plate reader. The control cell viability which was not treated with the components was accepted to be 100% and the viability rates of the cells were expressed as %. […] According to the results obtained, the dose range was extended until the IC50 value was determined. MTT assay is a frequently used method which measures the cytotoxic effects of the compounds on the cells by converting the yellow colored MTT stain into purple colored formazan crystals via the mitochondrial succinate dehydrogenase activity. In the cytotoxic activity tests of the compounds, A549 lung adenocarcinoma and CCDLu19 normal lung fibroblast cell lines were used.

caspase-3 = assay: Caspase-3 activity by flow cytometry; type: cell-based, human; settings: A549 cells, 24 hours, IC50 concentrations
Experimental: After the active compounds were determined with the MTT assay, their caspase-3 activities on A549 cells depending on IC50 concentrations were determined in flow cytometry with BD, Pharmingen flow cytometry kit according to the manufacturer's recommendations. Briefly, the cells were incubated at the determined doses and times with the compounds. The cells were washed twice with cold 1 X PBS. These cells were suspended with BD Cytofix/Cytoperm solution (1×10^6 cell / 0.5 mL). Then they were left to wait on ice for 20 minutes. After centrifugation, the cells were removed with the BD Cytofix/Cytoperm solution. The cells were washed twice with BD Perm/Wash™ buffer (1×10^6 cell/0.5 mL). Afterwards the cells were re-suspended with BD Perm/Wash™ buffer and antibodies and they were kept at room temperature for 30 minutes. For each test, the cells were washed in 1 mL BD Perm/Wash^TM buffer and were suspended in 0.5 mL BD Perm/Wash^TM buffer and they were analyzed with flow cytometry.

A549 cells = assay: JC-1 staining, mitochondrial membrane integrity by flow cytometry; type: cell-based, human; settings: 24 hours, IC50 concentrations
Experimental: After the active compounds were determined with the MTT assay, the determination of mitochondrial membrane integrity in A549 cells depending on IC50 concentrations were carried out in flow cytometry with BD, Pharmingen flow cytometry kit according to the manufacturer's recommendations. Briefly, the cells were seeded with optimal density (must not exceed 1×10^6 cell/mL). Following this, the cells were incubated with concentrations and time suitable for the compounds to be tested. After treatment, each cell suspension was transferred into a 15 mL polystyrene centrifuge tube and the cells were centrifuged at 400 × g for 5 minutes at room temperature, and supernatant was removed. Later, 0.5 mL freshly prepared working solution was added to each pellet and was vortexed. The cells were incubated in JC-1 working solution at 37 °C for 10-15 minutes and they were washed twice. In the first wash, 2 mL 1X assay buffer was added and the cells were precisely suspended. Following this, the cells were centrifuged at 400 × g for 5 minutes and the supernatant was removed carefully. In the next wash, 1 mL 1X assay buffer was added and was vortexed. After the cells were centrifuged at 400 × g for 5 minutes, each cell pellet was suspended in a 0.5 mL 1X assay buffer and was vortexed. Finally, the cell is analyzed with flow cytometry.

ROCK = ROCK activity assay on lysates of treated A549 cells; type: cell-based, human; settings: for ROCK Inhibition% / ROCK inhibition (in words): 24 hours; for ROCK Inhibition%: IC50 concentration (9: 5.75; 11: 0.73; 12: 0.80; 14: 2.63; Cisplatin: 23.00 µg/mL); for ROCK inhibition (in words): IC50 and IC50/2 concentrations
Experimental: The intracellular COX, Akt and ROCK inhibitory effects of the active compounds determined with the MTT assay, were measured with the colorimetric assay according to the manufacturer's recommendations.
Two wells were used for each sample. 90 µL active ROCK-II positive control and samples were added to the wells of the substrate plate. 10 X kinase solution comprising DTT and ATP was added to 10 µL wells and the kinase reaction was started and the plate was incubated at 30 °C for 30-60 minutes. 50 µL 0.5 M EDTA was added to each well at pH=8.0 and the reaction was stopped. The wells were emptied and they were washed 3 times with 250 µL 1X washing solution. After the final washing, 100 µL anti-phospho-MYPT1 (Thr696) antibody was added. The plate was closed and it was incubated at room temperature for 1 hour on an orbital shaker. After the wells were washed three times again, 100 µL HRP-conjugated secondary antibody was added and it was incubated again at room temperature for 1 hour on an orbital shaker. After the wells were emptied, they were washed 3 times. Then 100 µL of substrate solution was added. It was incubated at room temperature for 5-20 minutes on an orbital shaker. 100 µL of stop solution was added. The absorbance of each well was read at a wavelength of 450 nm in a spectrophotometric microplate reader.

SMILES	IC50 values (µg/mL) A549 cell line ([1]; 24 hour incubation) [µg/mL]	Caspase-3 negative (-) cells% (caspase-3) [%]	Caspase-3 positive (+) cells% (caspase-3) [%]	Mitochondrial membrane depolarized (P2) cells% (A549 cells) [%]	Mitochondrial membrane polarized (P1) cells% (A549 cells) [%]	ROCK Inhibition% (ROCK)	ROCK Inhibition% (ROCK; listed as cisplatin) [%]	IC50 [1] [µg/mL]	ROCK inhibition (in words) (ROCK)	IC50 (ROCK inhibition) (ROCK; 24 hours incubation) [µg/mL]
N.N.[Cl][Pt][Cl] [Cisplatin, reference compound]	23.00 ± 1.41	89.70	10.30	48.00	52.40	29.84±0.16%	29.84	–	–	–
CS(=O)(=O)c1ccc(C2=Nn3c(CCc4ccc5c(c4)OCO5)nnc3SC2)cc1 [Compound 9]	–	96.70	3.40	8.80	91.10	6.89±0.44%	–	5.75 ± 2.47 (≈ 13 µM)	did not exhibit significant ROCK inhibition	–
FC(F)(F)c1ccc(C2=Nn3c(CCc4ccc5c(c4)OCO5)nnc3SC2)cc1 [Compound 11, 3-[2-(1,3-Benzodioxole-5-yl)ethyl]-6-(4-trifluoromethylphenyl)-7H-[1,2,4]triazolo [3,4-b][1,3,4]thiadiazine]	–	97.00	3.10	58.80	41.30	–	–	0.73 ± 0.16 (≈ 1.69 µM)	did not exhibit significant ROCK inhibition	–
Fc1cccc(C2=Nn3c(CCc4ccc5c(c4)OCO5)nnc3SC2)c1 [Compound 12, 3-[2-(1,3-Benzodioxole-5-yl)ethyl]-6-(3-fluorophenyl)-7H-[1,2,4]triazolo [3,4-b] [1,3,4]thiadiazine]	–	97.80	2.40	47.00	53.00	–	–	0.8 ± 0.05 (≈ 2.09 µM)	did not exhibit significant ROCK inhibition	–
c1ccc(-c2ccc(C3=Nn4c(CCc5ccc6c(c5)OCO6)nnc4SC3)cc2)cc1 [Compound 14, 3-[2-(1,3-Benzodioxole-5-yl)ethyl]-6-(biphenyl-4-yl)-7H-[1,2,4]triazolo[3,4-b] [1,3,4]thiadiazine]	–	96.60	3.70	47.20	53.20	53.85% and 53.85±8.85%	–	2.63 ± 0.72 (≈ 5.97 µM)	–	2.55 ± 0.21 (≈ 5.79 µM)
